Assay results from patent US12090149B2, “SMAD3 inhibitors” (Moexa Pharmaceuticals Limited, priority 2018, dated 2024).
pIC50: −log10 of the molar value. Where two headings read alike, the source gives them in different places.

Columns and labels:
[1] = Aqueous solubility assay (shake-flask, LC/MS/MS); type: physicochemical
[2] = molecular target: T1, CYP2D6 (Homo sapiens, UniProt P10635); experiment: Cytochrome P450 inhibition assay, human liver microsomes, CYP2D6; type: in vitro ADME
T1 construct: CONSTRUCT DETAILS: Microsomes; from tissue; host or cells: human liver microsomes
T1 sequence (P10635 whole entry): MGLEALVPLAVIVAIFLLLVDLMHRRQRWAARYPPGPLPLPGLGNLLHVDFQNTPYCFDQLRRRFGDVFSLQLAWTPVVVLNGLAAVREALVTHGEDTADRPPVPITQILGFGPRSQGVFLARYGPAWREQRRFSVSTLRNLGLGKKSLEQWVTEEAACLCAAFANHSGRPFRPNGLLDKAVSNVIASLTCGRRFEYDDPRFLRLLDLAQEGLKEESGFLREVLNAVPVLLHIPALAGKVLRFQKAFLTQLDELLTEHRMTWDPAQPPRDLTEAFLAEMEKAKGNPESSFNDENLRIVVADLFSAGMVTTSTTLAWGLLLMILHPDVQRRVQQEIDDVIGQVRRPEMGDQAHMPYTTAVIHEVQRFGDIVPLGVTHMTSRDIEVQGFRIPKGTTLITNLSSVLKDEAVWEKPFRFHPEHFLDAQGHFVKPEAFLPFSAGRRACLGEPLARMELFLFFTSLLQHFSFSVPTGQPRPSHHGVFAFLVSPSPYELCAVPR

[3] = system: TGFβ/Smad Signaling Pathway SBE Reporter—HEK293 Cell Line; experiment: TGFβ/Smad SBE reporter luciferase assay in HEK293 cells stimulated with human TGFβ1; type: cell-based; details: 4 h compound, then TGFβ1 20 ng/ml ~18 h
Experimental: • 1. TGFβ/Smad Signaling Pathway SBE Reporter—HEK293 Cell Line BPS Bioscience Catalog #: 60653 • 2. Human TGFβ1 (BPS Bioscience #90900-1) • 3. SIS3 (Sigma #S0447): inhibitor of TGFβ pathway. Prepare stock soln. in DMSO • 4. Growth medium: MEM medium (Invitrogen #11095-080)+10% FBS (ATCC #30-2020)+1% non-essential amino acids (Lonza #13-114E)+1 mM Na pyruvate (Lonza #13-115E)+1% Penicillin/Streptomycin (ATCC #30-2300)+400 μg/ml of Geneticin (Invitrogen #11811-031) • 5. Assay medium: MEM medium+0.5% FBS+1% non-essential amino acids+1 mM Na pyruvate+1% Pen/Strep • 6. 96-well tissue culture-treated white clear-bottom assay plate (Corning #3610) • 7. ONE-Step™ Luciferase Assay System (BPS, Cat. #60690)
SBE reporter-HEK293 cells were harvested from culture in growth medium and seeded at a density of ˜10,000 cells per well into a white clear-bottom 96-well microplate in 100 μl of assay medium. The plate containing cells was incubated at 37° C. in a CO2 incubator. 24 h after seeding, cells were washed with 100 μL of assay buffer and treated with three-fold serial dilution of compounds in 50 μl assay medium. […]
After 18 h of incubation, Luciferase assay was performed using ONE-Step™ Luciferase Assay System according to the protocol provided: 50 μl of ONE-Step™ Luciferase reagent was added per well and shook at room temperature for […]. Luminescence was measured using a luminometer.

[4] = Aqueous solubility assay (shake-flask, LC/MS/MS); type: physicochemical; details: for solubility at 24 h: thermodynamic from solid, read-out: Conc. Of Sample (ug/mL), aqueous solubility; for solubility at 24 h / Conc. Of Sample (ug/mL), aqueous solubility: 25° C., SIS3 hydrochloride salt, MO-00005 free base, 24 hours
Experimental: Poorly soluble compounds can dramatically reduce productivity in drug discovery and development. Solubility assays involve assessment of kinetic solubility (from DMSO stock solution) using a shake-flask technique in a plate format and LC/MS/MS analysis.
• Analytical Column: YMC ODS-AM S-3 120A, 3×50 mm column with Guard. • Flow Rate: 500 ul/min • Mobil Phase: Isocratic 50% acetonitrile: 50% 20 mM Ammonium Acetate pH 4. Back Pressure: 1400 psi • Column Temperature: Ambient, • Autosampler Setting: Injection Volume: 5 ul, Loop Volume: 100 ul, Tray Temperature: 4° C. • Needle wash: Vial position 100. Needle wash solution: 50% Methanol water
• Component Mass Molarity • Sodium bicarbonate (mw: 84 g/mol) 0.11628 g 0.0461 M • Sodium carbonate (anhydrous) (mw: 106 g/mol) 0.17127 g 0.0539 M • Tris Buffer pH 7.7 (100 mL) • Add 0.363 g of tris to 30 mL water. Check pH at room temperature the pH should be 7.7 with acetic acid. • Acetate Buffer pH 3.6 (30 mL) • Component Mass Molarity • Sodium Acetate (anhydrous) (mw: 82 g/mol) 0.01188 g 0.0048 M • Acetic Acid (mw: 60.05 g/mol) 0.17145 g 0.0952 M (0.17145 g=[…])
Then run all samples at this dilution. • (xi) Run samples in duplicate and estimate aqueous solubility.
As such, it may be expected that the hydrochloride salt will have better solubility in unbuffered aqueous solutions. There the thermodynamic equilibrium dissolution concentrations of both compounds were determined also in buffered solutions at pH 4, 7.7, and 10.4 in addition to unbuffered water.

[5] = molecular target: T2, CYP2C9 (Homo sapiens, UniProt P11712); experiment: Cytochrome P450 inhibition assay, human liver microsomes, CYP2C9; type: in vitro ADME
T2 construct: CONSTRUCT DETAILS: Microsomes; from tissue; host or cells: human liver microsomes
T2 sequence (P11712 whole entry): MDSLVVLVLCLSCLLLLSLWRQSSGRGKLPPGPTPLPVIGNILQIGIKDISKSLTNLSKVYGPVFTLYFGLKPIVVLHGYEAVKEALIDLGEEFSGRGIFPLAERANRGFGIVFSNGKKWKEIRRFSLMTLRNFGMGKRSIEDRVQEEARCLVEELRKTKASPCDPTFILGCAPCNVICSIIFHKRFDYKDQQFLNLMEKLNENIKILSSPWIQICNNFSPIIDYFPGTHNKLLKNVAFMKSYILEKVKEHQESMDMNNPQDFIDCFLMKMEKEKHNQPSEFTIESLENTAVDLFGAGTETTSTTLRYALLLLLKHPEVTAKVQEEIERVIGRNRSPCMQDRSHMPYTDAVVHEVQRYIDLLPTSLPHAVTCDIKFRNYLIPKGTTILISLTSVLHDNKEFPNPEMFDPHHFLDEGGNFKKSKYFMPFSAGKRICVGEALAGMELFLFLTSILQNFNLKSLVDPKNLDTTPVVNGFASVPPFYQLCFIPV
Text: • SUBSTRATE: Diclofenac

[6] = Body weight of tumor bearing mice in the B16-F10 syngeneic model; type: in vivo, C57BL/6 mice
Experimental: • Animal species and strain: C57BL/6 mice • History of treatment: Naive • Sex, age and weight: Female, 6-8 weeks • Breeder/supplier: Shanghai SLAC Laboratory Animal Co. Ltd • Adaptation: At least 7 days • Room: SPF Room • Room temperature: 20-26° C. • Room relative humidity: 40-70% • Light cycle: Fluorescent light for 12-hour light (08:00-20:00) and 12-hour dark • Animal hosting: 2-5 mice/cage each group • Food: Free access to food • Water: Free access to water (municipal tap water filtered by reverse osmosis or high-pressure sterilizer)
B16-F10 cells (3×10^5 in 100 μL of serum-free medium) were inoculated to each of C57BL/6 mice via s.c. under anesthesia by 3-4% isoflurane. Each group contains 15 mice.
When average tumor volume reached 35-60 mm^3, 15 mice were randomized into group 6. The day of inoculation was denoted as day 0.
Body weight was measured on Day 4, 5, 6, 8, 11, 13, 15 and 18 after inoculation. When required, body weight was measured daily.
Results were expressed as mean±S.E.M. Comparisons between two groups were made by Dunnett's multi-comparison test, p<0.05 were considered as significant.

[7] = 10 mg/kg q.d. * 3W i.p., Day 11
[8] = 10 mg/kg q.d. * 3W i.p., Day 13
[9] = 10 mg/kg q.d. * 3W i.p., Day 15
[10] = 10 mg/kg q.d. * 3W i.p., Day 18
[11] = 30 mg/kg q.d. * 3W i.p., Day 11
[12] = 30 mg/kg q.d. * 3W i.p., Day 13
[13] = 30 mg/kg q.d. * 3W i.p., Day 15
[14] = 30 mg/kg q.d. * 3W i.p., Day 18

Row | Structure (SMILES) | Body weight (g) Mean ([6]; 10 mg/kg q.d. * 3W i.p., Day 1) [g] | Body weight (g) Mean ([6]; 10 mg/kg q.d. * 3W i.p., Day 4) [g] | Body weight (g) Mean ([6]; 10 mg/kg q.d. * 3W i.p., Day 5) [g] | Body weight (g) Mean ([6]; 10 mg/kg q.d. * 3W i.p., Day 6) [g] | Body weight (g) Mean ([6]; 10 mg/kg q.d. * 3W i.p., Day 8) [g] | Body weight (g) Mean [6, 7] [g] | Body weight (g) Mean [6, 8] [g] | Body weight (g) Mean [6, 9] [g] | Body weight (g) Mean [6, 10] [g] | Body weight (g) Mean ([6]; 30 mg/kg q.d. * 3W i.p., Day 1) [g] | Body weight (g) Mean ([6]; 30 mg/kg q.d. * 3W i.p., Day 4) [g] | Body weight (g) Mean ([6]; 30 mg/kg q.d. * 3W i.p., Day 5) [g] | Body weight (g) Mean ([6]; 30 mg/kg q.d. * 3W i.p., Day 6) [g] | Body weight (g) Mean ([6]; 30 mg/kg q.d. * 3W i.p., Day 8) [g] | Body weight (g) Mean [6, 11] [g] | Body weight (g) Mean [6, 12] [g] | Body weight (g) Mean [6, 13] [g] | Body weight (g) Mean [6, 14] [g] | other results
1 | COc1cc2c(cc1OC)CN(C(=O)/C=C/c1c(-c3ccccc3)nc3ccccn13)CC2 [Compound 8, (E)-1-(6,7-dimethoxy-3,4-dihydroisoquinolin-2(1H)-yl)-3-(2-phenylimidazo[1,2-a]pyridin-3-yl)prop-2-en-1-one] | 16.73 | 16.41 | 16.26 | 16.21 | 16.67 | 17.33 | 17.51 | 18.85 | 21.26 | 16.70 | 16.54 | 16.32 | 16.18 | 16.60 | 17.36 | 17.78 | 18.73 | 20.93 | solubility at 24 h ([1]; aqueous buffer pH 10.63, aqueous buffer, thermodynamic from solid, pH 10.63 buffer, 25° C., 24 hours, SIS3 hydrochloride salt, MO-00005 free base, read-out: Conc. Of Sample (ug/mL), aqueous solubility): 280 µg/mL; aqueous solubility relative to the solubility of SIS3 ([1]; pH 10.63): 117 times; inhibition at 10 µM ([2]; probe dextromethorphan, dextromethorphan substrate, read-out: CYP2D6 inhibition (HLM, dextromethorphan substrate) Inhibition (%)): -2.74%; pIC50 ([3]; Homo sapiens): 5.45; solubility at 24 h ([4]; aqueous buffer pH 4.03, aqueous buffer, pH 4.03 buffer): 598 µg/mL; solubility at 24 h ([4]; aqueous buffer pH 7.70, pH 7.7, aqueous buffer, pH 7.70 buffer): 269 µg/mL; aqueous solubility relative to the solubility of SIS3 ([4]; pH of 4.0): 35 times; solubility at 24 h ([4]; unbuffered water): 321 µg/mL; inhibition at 10 µM ([5]; probe diclofenac, diclofenac substrate, read-out: CYP2C9 inhibition (HLM, diclofenac substrate) Inhibition (%)): 66.9%; Body weight (g) Mean ([6]; 100 mg/kg q.d. * 3W i.p. (group 6), Day 11): 17.20 g; Body weight (g) Mean ([6]; 100 mg/kg q.d. * 3W i.p. (group 6), Day 13): 17.95 g; Body weight (g) Mean ([6]; 100 mg/kg q.d. * 3W i.p. (group 6), Day 15): 18.78 g; Body weight (g) Mean ([6]; 100 mg/kg q.d. * 3W i.p. (group 6), Day 18): 21.82 g; Body weight (g) Mean ([6]; 100 mg/kg q.d. * 3W i.p. (group 6, randomized at tumor volume 35-60 mm^3), Day 8): 17.36 g
2 | COc1cc2c(cc1OC)CN(C(=O)/C=C/c1c(-c3ccccc3)n(C)c3ncccc13)CC2.Cl [SIS3, reference compound] | 16.72 | 16.64 | 16.55 | 16.50 | 16.83 | 17.53 | 17.84 | 19.04 | 20.77 | 16.72 | 16.66 | 16.55 | 16.59 | 16.69 | 17.30 | 17.53 | 18.45 | 20.70 | Conc. Of Sample (ug/mL), aqueous solubility ([1]; pH 10.63 buffer, 25° C., 24 hours, SIS3 hydrochloride salt, MO-00005 free base): 2.4 µg/mL; CYP2D6 inhibition (HLM, dextromethorphan substrate) Inhibition (%) ([2]; 10 uM): 19.1641%; pIC50 [3]: 5.53; Conc. Of Sample (ug/mL), aqueous solubility ([4]; pH 4.03 buffer): 17.2 µg/mL; Conc. Of Sample (ug/mL), aqueous solubility ([4]; pH 7.70 buffer): 7.0 µg/mL; Conc. Of Sample (ug/mL), aqueous solubility ([4]; unbuffered water): 17.7 µg/mL; CYP2C9 inhibition (HLM, diclofenac substrate) Inhibition (%) ([5]; 10 uM): 79.7661%
